Measured values published in the NIST ThermoML archive (doi:10.1021/je060271a).
Where “and” joins values, the source holds several entries; their conditions need not be identical. Identical values can stand only once.

Settings: Liquid, Vibrating tube method

CCCCC(=O)OCC(COC(=O)CCCC)(COC(=O)CCCC)COC(=O)CCCC [pentaerythritol tetrapentanoate]
Settings	mass density
283.14 K, 1387.6 kPa	1027.8 kg/m3
283.14 K, 1404.2 kPa	1027.9 kg/m3
283.14 K, 1537.6 kPa	1028 kg/m3
283.14 K, 1581.5 kPa	1028 kg/m3
283.14 K, 1602.2 kPa	1028 kg/m3
283.14 K, 7137 kPa	1031.3 kg/m3
283.14 K, 7155.5 kPa	1031.2 kg/m3
283.14 K, 7173.8 kPa	1031.2 kg/m3
283.14 K, 7196.4 kPa	1031.2 kg/m3
283.14 K, 7215.6 kPa	1031.3 kg/m3
283.14 K, 7545.3 kPa	1031.5 kg/m3
283.14 K, 7570.8 kPa	1031.5 kg/m3
283.14 K, 7613.2 kPa	1031.4 kg/m3
283.14 K, 7932.2 kPa	1031.7 kg/m3
283.14 K, 7959.6 kPa	1031.7 kg/m3
283.14 K, 7982.3 kPa	1031.7 kg/m3
283.14 K, 8033 kPa	1031.8 kg/m3
283.14 K, 8056.3 kPa	1031.7 kg/m3
283.14 K, 8103.7 kPa	1031.7 kg/m3
283.14 K, 8185.7 kPa	1031.9 kg/m3
283.14 K, 9062.7 kPa	1032.4 kg/m3
283.14 K, 9128.2 kPa	1032.3 kg/m3
283.14 K, 9352.3 kPa	1032.5 kg/m3
283.14 K, 9390.6 kPa	1032.6 kg/m3
283.14 K, 9422.3 kPa	1032.5 kg/m3
283.14 K, 9460.6 kPa	1032.5 kg/m3
283.14 K, 9493.3 kPa	1032.5 kg/m3
283.14 K, 9525.9 kPa	1032.5 kg/m3
283.14 K, 9558.8 kPa	1032.6 kg/m3
283.14 K, 10081 kPa	1032.9 kg/m3
283.14 K, 10162 kPa	1032.9 kg/m3
283.14 K, 11953 kPa	1034 kg/m3
283.15 K, 105.8 kPa	1027.1 kg/m3
283.15 K, 106 kPa	1027.1 kg/m3 and 1027.2 kg/m3
283.15 K, 106.2 kPa	1027.2 kg/m3 and 1027.1 kg/m3 and 1027 kg/m3
283.15 K, 106.3 kPa	1027.2 kg/m3
283.15 K, 106.7 kPa	1027.2 kg/m3
283.15 K, 107.6 kPa	1027.1 kg/m3
283.15 K, 108.1 kPa	1027.1 kg/m3
283.15 K, 109.5 kPa	1027 kg/m3
283.15 K, 111.9 kPa	1027.2 kg/m3
283.15 K, 117.3 kPa	1027.1 kg/m3
283.15 K, 124.3 kPa	1027.1 kg/m3
283.15 K, 130.2 kPa	1027.2 kg/m3
283.15 K, 135 kPa	1027.1 kg/m3
283.15 K, 140.8 kPa	1027.1 kg/m3
283.15 K, 147.2 kPa	1027.1 kg/m3
283.15 K, 154.9 kPa	1027.1 kg/m3
283.15 K, 163.9 kPa	1027.1 kg/m3
283.15 K, 178 kPa	1027.2 kg/m3
283.15 K, 192.4 kPa	1027.1 kg/m3
283.15 K, 213.6 kPa	1027.1 kg/m3
283.15 K, 233.4 kPa	1027.1 kg/m3
283.15 K, 247.7 kPa	1027.2 kg/m3
283.15 K, 264 kPa	1027.2 kg/m3
283.15 K, 279.7 kPa	1027.1 kg/m3
283.15 K, 296.5 kPa	1027.1 kg/m3
283.15 K, 313.2 kPa	1027.2 kg/m3
283.15 K, 332 kPa	1027.2 kg/m3
283.15 K, 349 kPa	1027.3 kg/m3
283.15 K, 368.1 kPa	1027.2 kg/m3
283.15 K, 391.4 kPa	1027.3 kg/m3
283.15 K, 406.5 kPa	1027.2 kg/m3
283.15 K, 423.1 kPa	1027.4 kg/m3
283.15 K, 437.7 kPa	1027.3 kg/m3
283.15 K, 452.6 kPa	1027.3 kg/m3
283.15 K, 469.3 kPa	1027.3 kg/m3
283.15 K, 482.3 kPa	1027.4 kg/m3
283.15 K, 495.9 kPa	1027.3 kg/m3
283.15 K, 512.7 kPa	1027.3 kg/m3
283.15 K, 528.4 kPa	1027.4 kg/m3
283.15 K, 544.4 kPa	1027.4 kg/m3
283.15 K, 563 kPa	1027.2 kg/m3
283.15 K, 579.3 kPa	1027.3 kg/m3
283.15 K, 596.9 kPa	1027.5 kg/m3
283.15 K, 618.9 kPa	1027.3 kg/m3
283.15 K, 638.7 kPa	1027.4 kg/m3
283.15 K, 659.6 kPa	1027.5 kg/m3
283.15 K, 682 kPa	1027.5 kg/m3
283.15 K, 710.3 kPa	1027.4 kg/m3
283.15 K, 735.2 kPa	1027.6 kg/m3
283.15 K, 767.3 kPa	1027.5 kg/m3
283.15 K, 795.3 kPa	1027.5 kg/m3
283.15 K, 819.4 kPa	1027.5 kg/m3
283.15 K, 839.6 kPa	1027.6 kg/m3
283.15 K, 865.5 kPa	1027.6 kg/m3
283.15 K, 888.6 kPa	1027.5 kg/m3
283.15 K, 912.5 kPa	1027.6 kg/m3
283.15 K, 938.4 kPa	1027.7 kg/m3
283.15 K, 969.9 kPa	1027.6 kg/m3
283.15 K, 997.3 kPa	1027.6 kg/m3
283.15 K, 1027 kPa	1027.7 kg/m3
283.15 K, 1064.4 kPa	1027.7 kg/m3
283.15 K, 1096.7 kPa	1027.7 kg/m3
283.15 K, 1131.3 kPa	1027.7 kg/m3
283.15 K, 1175 kPa	1027.7 kg/m3
283.15 K, 1212.2 kPa	1027.8 kg/m3
283.15 K, 1243.1 kPa	1027.7 kg/m3
283.15 K, 1258.2 kPa	1027.8 kg/m3
283.15 K, 1275 kPa	1027.8 kg/m3
283.15 K, 1289.5 kPa	1027.7 kg/m3
283.15 K, 1304.2 kPa	1027.8 kg/m3
283.15 K, 1321.8 kPa	1027.8 kg/m3
283.15 K, 1336.7 kPa	1027.8 kg/m3
283.15 K, 1351.8 kPa	1027.9 kg/m3
283.15 K, 1371.1 kPa	1027.9 kg/m3
283.15 K, 1421.6 kPa	1027.8 kg/m3
283.15 K, 1442.1 kPa	1027.9 kg/m3
283.15 K, 1459.8 kPa	1027.9 kg/m3
283.15 K, 1477.5 kPa	1027.9 kg/m3
283.15 K, 1499.7 kPa	1027.9 kg/m3
283.15 K, 1518.7 kPa	1027.9 kg/m3
283.15 K, 1561.4 kPa	1027.9 kg/m3
283.15 K, 1627.3 kPa	1028.1 kg/m3
283.15 K, 1648.9 kPa	1028.1 kg/m3
283.15 K, 1671.6 kPa	1028 kg/m3
283.15 K, 1695.7 kPa	1028 kg/m3
283.15 K, 1719.2 kPa	1028.1 kg/m3
283.15 K, 1748.3 kPa	1028.1 kg/m3
283.15 K, 1772.8 kPa	1028 kg/m3
283.15 K, 1798.3 kPa	1028 kg/m3
283.15 K, 1824.2 kPa	1028.1 kg/m3
283.15 K, 1856.3 kPa	1028.2 kg/m3
283.15 K, 1883 kPa	1028.2 kg/m3
283.15 K, 1911.7 kPa	1028.1 kg/m3
283.15 K, 1940.6 kPa	1028.2 kg/m3
283.15 K, 1976.1 kPa	1028.2 kg/m3
283.15 K, 2006.6 kPa	1028.2 kg/m3
283.15 K, 2039.2 kPa	1028.3 kg/m3
283.15 K, 2073.9 kPa	1028.3 kg/m3
283.15 K, 2114 kPa	1028.3 kg/m3
283.15 K, 2165.9 kPa	1028.3 kg/m3
283.15 K, 2243 kPa	1028.4 kg/m3
283.15 K, 2290.5 kPa	1028.4 kg/m3
283.15 K, 2304.2 kPa	1028.4 kg/m3
283.15 K, 2315.5 kPa	1028.5 kg/m3
283.15 K, 2325.4 kPa	1028.5 kg/m3
283.15 K, 2335.1 kPa	1028.5 kg/m3
283.15 K, 2345 kPa	1028.4 kg/m3
283.15 K, 2356.8 kPa	1028.4 kg/m3
283.15 K, 2367 kPa	1028.5 kg/m3
283.15 K, 2376.9 kPa	1028.5 kg/m3
283.15 K, 2387.1 kPa	1028.5 kg/m3
283.15 K, 2399.6 kPa	1028.4 kg/m3
283.15 K, 2409.9 kPa	1028.5 kg/m3
283.15 K, 2419.9 kPa	1028.6 kg/m3
283.15 K, 2432.6 kPa	1028.5 kg/m3
283.15 K, 2443.2 kPa	1028.4 kg/m3
283.15 K, 2453.4 kPa	1028.5 kg/m3
283.15 K, 2464 kPa	1028.6 kg/m3
283.15 K, 2476.8 kPa	1028.5 kg/m3
283.15 K, 2487.6 kPa	1028.7 kg/m3
283.15 K, 2498.3 kPa	1028.4 kg/m3
283.15 K, 2511.9 kPa	1028.5 kg/m3
283.15 K, 2523 kPa	1028.4 kg/m3
283.15 K, 2534.1 kPa	1028.6 kg/m3
283.15 K, 2545.9 kPa	1028.6 kg/m3
283.15 K, 2559.4 kPa	1028.6 kg/m3
283.15 K, 2570.3 kPa	1028.6 kg/m3
283.15 K, 2581.9 kPa	1028.6 kg/m3
